Experimental data: patent US6080871A, “Sulfonamides and sulfamides as H3 receptor antagonists” (James Black Foundation Limited, priority 1996, dated 2000)
Where two headings read alike, the source gives them in different places.

Columns and labels:
Histamine H3 = target: T1, Histamine H3 (Cavia porcellus, UniProt Q9JI35); assay: Histamine H3 radioligand binding assay, [3H]-R-α-methylhistamine, guinea pig ileum longitudinal muscle myenteric plexus membranes
T1 construct: ileum longitudinal muscle myenteric plexus membranes; from tissue; host or cells: ileum longitudinal muscle myenteric plexus membranes of male Dunkin Hartley guinea pigs
T1 sequence (Q9JI35 whole entry): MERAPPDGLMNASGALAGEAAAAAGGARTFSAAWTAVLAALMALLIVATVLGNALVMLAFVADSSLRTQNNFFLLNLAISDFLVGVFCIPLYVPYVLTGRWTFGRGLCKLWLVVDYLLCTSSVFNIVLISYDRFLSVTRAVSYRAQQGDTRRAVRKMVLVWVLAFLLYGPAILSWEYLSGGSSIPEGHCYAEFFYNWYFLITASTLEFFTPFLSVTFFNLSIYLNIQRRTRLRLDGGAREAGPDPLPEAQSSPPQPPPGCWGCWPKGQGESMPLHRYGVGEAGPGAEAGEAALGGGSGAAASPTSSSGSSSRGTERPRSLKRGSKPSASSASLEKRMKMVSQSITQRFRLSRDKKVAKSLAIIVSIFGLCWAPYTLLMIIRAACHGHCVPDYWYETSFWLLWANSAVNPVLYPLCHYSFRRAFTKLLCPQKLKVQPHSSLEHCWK
Protocol: Histamine H3 Radioligand Binding Assay
Male Dunkin Hartley guinea pigs (200-300 g) were used. The small intestine was rapidly removed (cut ~5 cm from caecum and 5 cm from stomach) and placed in ice-cold 20 mM Hepes-NaOH buffer (pH7.4 at 21±3° C.). The tissue was cut into ~10 cm segments, flushed through with ice-cold 20 mM Hepes-NaOH buffer and placed in a beaker containing fresh buffer at 4° C. 10 cm segments of ileum were threaded onto a glass pipette and the longitudinal muscle myenteric plexus was peeled away from the circular muscle using damp cotton-wool. Longitudinal muscle myenteric plexus was immediately placed in ice-cold Viaspan® solution (~100 ml for tissue from 3 guinea pigs) and placed in the refrigerator for 24 hours.
Pre-soaked tissue was weighed and minced with scissors. The tissue was then homogenised in Viaspan® using a polytron (Kinematica AG; PT-DA 3020/2TS, 3×~1-2 s). 50 ml of 500 mM Tris HCl (pH6.9 at 21±3° C.) was added to the tissue and the mixture centrifuged at 39,800×g for 12 min at 4° C. The supernatant was discarded and rehomogenised in 100 ml ice-cold 20 mM Hepes-NaOH buffer (pH7.4 at 21±3° C.) using a teflon-in-glass homogeniser (setting 10; 3×). The homogenate was recentrifuged at 39,800×g and the pellet resuspended in 20 mM Hepes-NaOH buffer (pH7.4 at 21±3° C.), to a tissue concentration of 50 mg.ml^-1, using a polytron (Brinkman, PT10, 3×~1 s).
Guinea pig ileum longitudinal muscle myenteric plexus membranes (400 μl) were incubated for 165 min at 21±3° C. in a final volume of 500 μl with 20 mM Hepes-NaOH buffer containing [^3 H]-R-α-methylhistamine (50 μl; 3 nM) and competing compound. Total and non-specific binding of [^3 H]-R-α-methylhistamine were defined using 50 μl of buffer and 50 μl of 10 μM thioperamide, respectively. The assay was terminated by rapid filtration through Whatman GF/B filters, presoaked (2 hr) in 0. 1% polyethyleneimine,using a Brandell Cell Harvester. The filters were washed (3×3 ml) with ice-cold 50 mM Tris-HCl (pH6.9 at 21±3° C.), transferred into scintillation vials, 5 ml liquid scintillation cocktail was added and after 4 hours the bound radioactivity was determined by counting (4 min) in a Beckman liquid scintillation counter.
Data are analysed using GraphPad prism and the general equation for a competition curve with variable Hill slope (nH).
Y=Non-specific binding+(Total binding-Non-specific binding)/1+10^((logIC.sbsp.50^-X).n.sbsp.H^)
X is the log concentration of competing compound, Y is the binding obtained at each concentration of X, pIC50 is the concentration of the competitor required to compete for half of the specific binding.
The IC50 is converted to the K1 using the Cheng Prusoff equation, […]
IC50 is the concentration of competitor required to compete for half the specific binding, L is the radioligand concentration used, KD is the equilibrium dissociation constant for the radioligand determined by saturation experiments.
(§1) Typical variance in the functional assay is ±0.15 log units. Typical variance in the binding assay is ±0.12 log units. This means that if the discrepancy between the two assays is greater than about 0.5 log units, then this difference on average is significant.

H3 receptor = target: T2, H3 receptor (Cavia porcellus, UniProt Q9JI35); assay: H3 receptor bioassay (functional assay), guinea pig ileal longitudinal muscle myenteric plexus; format: cell-based; details: antagonism of R-(α)-methylhistamine E/[A] curve, Schild's methods, electrically stimulated guinea pig ileum, variance ±0.15 log units; for Kb: read-out: pKB (functional assay) (converted)
T2 construct: the longitudinal muscle layer and adhering myenteric plexus was teased away; from tissue; host or cells: ileal longitudinal muscle with adhering myenteric plexus of male Dunkin-Hartley guinea pigs
T2 sequence (Q9JI35 whole entry): as above
Protocol: The biological activity of the compounds of the examples was measured using the ileal longitudinal muscle, myenteric plexus assay described by Paton and Aboo Zar (J. Physiol. 194, 13-33 (1968)). Male Dunkin-Hartley guinea pigs (250-300 g) were employed. Briefly, a 50 cm portion of ileum proximal to the caecum was removed, after discarding the terminal 20 cm. Ileal segments (3 cm) were cleaned by passing Krebs-Henseleit buffer containing 3 μM mepyramine gently through the ileum using a Pasteur pipette (size: 13.8 cm length, 0.65 cm diameter). To avoid unnecessary damage to the tissue, Krebs-Henseleit buffer was passed through the ileal segment, while it was lying horizontally on a petri dish. Therefore, the ileum was not over-distended and the buffer flowed through with ease. Each segment was then passed over a Pasteur pipette and the longitudinal muscle layer and adhering myenteric plexus was teased away using moist cotton wool, by stroking tangentially away from the mesenteric attachment. The tissues were suspended in 20 ml organ baths containing Krebs-Henseleit buffer at 37±1° C. and gassed with […]. The tissues were ligated to two parallel stainless steel wires, situated between two platinum electrodes (0.76 cm length, 0.06 cm diameter). All measurements were recorded isometrically (Grass FTO3 transducer). Following an initial loading tension of 1 g, the tissues were stimulated with electrical pulses at a frequency of 0.1 Hz and a pulse duration of 0.5msec, as described by Kosterlitz & Watt (1968). Initially, the tissues were stimulated at supramaximal (1.3 fold times maximal) voltage for a period of 30 min and then the tissues were washed and re-stimulated. A "sighter dose" of the selective histamine H3 -receptor agonist, R-(α)-methylhistamine(0.3 μM) (Arrang et al., 1987), was administered. Upon generation of response, the "sighter dose" was removed from the tissues by "washout" (6 washes over 60 min) and during this period the electrical stimulation was switched off. The tissues were then re-stimulated and allowed to stabilise prior to the addition of drug treatments, which were allocated on a randomised block basis to the organ baths. Following the incubation period, a single cumulative E/[A] curve was obtained. The experimental E/[A] curve data was expressed as the percentage inhibition of the peak height of electrically-stimulated contraction. Antagonist affinity values were calculated from the degree of rightward shift of the R-(α)-methylhistamine E/[A] curves using Schild's methods (Arunlatcshama & Schild, 1949).
as §1

[1] = 3 nM [3H]-R-α-methylhistamine, 165 min, 21±3° C., Cheng Prusoff, variance ±0.12 log units, read-out: pK1 (binding assay) (converted)
[2] = 3 nM [3H]-R-α-methylhistamine, 165 min, 21±3° C., Cheng Prusoff, variance ±0.12 log units

SMILES	Ki (Histamine H3; [1]) [nM]	Kb (H3 receptor) [nM]	pK1 (binding assay) (Histamine H3; [2])	pKB (functional assay) (H3 receptor)	Ki (Histamine H3) [nM]
CN(CCCCc1c[nH]cn1)S(=O)(=O)NCc1ccc(Cl)cc1 [Example 69, N'-(4-Chlorophenyl)methyl-N-[4-(4(5)-imidazoyl)butyl]-N-methyl-sulfamide]	1.86	1.2	–	–	–
O=S(=O)(Cc1ccc(Cl)cc1)NCCCCCc1c[nH]cn1 [Example 9, N-[5-(4(5)-Imidazoyl)pentyl]-(4-chlorophenyl)methanesulfonamide]	–	46.8	7.94	–	–
O=S(=O)(NCCCCCc1c[nH]cn1)c1ccc2ccccc2c1 [Example 6, N-[5-(4(5)-Imidazoyl)pentyl]-2-naphthalenesulfonamide]	–	110	7.50	–	–
O=S(=O)(NCCCc1c[nH]cn1)NCc1ccc(Cl)cc1 [Example 14, N-[3-(4(5)-Imidazoyl)propyl]-N'-(4-chlorophenyl)methyl-sulfamide]	–	91.2	7.28	–	–
O=S(=O)(CCC1CCCCC1)NCCc1c[nH]cn1 [Example 23, N-[2-(4(5)-Imidazoyl)ethyl]-2-cyclohexylethanesulfonamide]	–	1350	7.55	–	–
O=S(=O)(CCc1ccc(Cl)cc1)NCCCc1c[nH]cn1 [Example 53, N-[3-(4(5)-Imidazoyl)propyl]-2-(4-chlorophenyl)ethanesulfonamide]	–	182	–	–	56.2
O=S(=O)(NCCCCc1c[nH]cn1)c1ccc2ccccc2c1 [Example 7, N-[4-(4(5)-Imidazoyl)butyl]-2-naphthalenesulfonamide]	–	155	7.42	–	–
O=S(=O)(NCCCCc1c[nH]cn1)NCc1ccc(-c2ccccc2)cc1 [Example 49, N-[4-(4(5)-Imidazoyl)butyl]-N'-(4-biphenyl)methyl-sulfamide]	–	4.79	8.12	–	–
O=S(=O)(NCCCCc1c[nH]cn1)NCC1CCCCC1 [Example 51, N-[4-(4(5)-Imidazoyl)butyl]-N'-cyclohexylmethyl-sulfamide]	79.4	97.7	–	–	–
O=S(=O)(Cc1ccc2ccccc2c1)NCCc1c[nH]cn1 [Example 19, N-[2-(4(5)-Imidazoyl)ethyl]-2-naphthylmethanesulfonamide]	1120	> 10000	–	–	–
O=S(=O)(Cc1ccc(Cl)cc1)NCCCCCCCCc1c[nH]cn1 [Example 33, N-[8-(4(5)-Imidazoyl)octyl]-(4-chlorophenyl)methanesulfonamide]	–	229	7.27	–	–
O=S(=O)(Cc1ccc(Cl)cc1)NCCCCc1c[nH]cn1 [Example 10, N-[4-(4(5)-Imidazoyl)butyl]-(4-chlorophenyl)methanesulfonamide]	–	2.4	8.53	–	–
O=S(=O)(NCCCCCCCCc1c[nH]cn1)c1ccc2ccccc2c1 [Example 30, N-[8-(4(5)-Imidazoyl)octyl]-2-naphthalenesulfonamide]	–	240	6.97	–	–

Continued, in another order:

Ki (Histamine H3; [1]) [nM]	Kb (H3 receptor) [nM]	pK1 (binding assay) (Histamine H3; [2])	pKB (functional assay) (H3 receptor)	SMILES	Ki (Histamine H3) [nM]
10.5	47.9	–	–	O=S(=O)(NCCCCCc1c[nH]cn1)NCc1ccc(F)cc1 [Example 65, N-[5-(4(5)-Imidazoyl)pentyl]-N'-(4-fluorophenyl)methyl-sulfamide]	–
5.01	3.89	–	–	O=S(=O)(NCCCCCc1c[nH]cn1)NCc1ccc(Br)cc1 [Example 64, N-[5-(4(5)-Imidazoyl)pentyl]-N'-(4-bromophenyl)methyl-sulfamide]	–
–	6.31	8.23	–	O=S(=O)(NCCCCCc1c[nH]cn1)NCc1ccc(Cl)cc1 [Example 12, N-[5-(4(5)-Imidazoyl)pentyl]-N'-(4-chlorophenyl)methyl-sulfamide]	–
4.27	3.89	–	–	O=S(=O)(NCCCCc1c[nH]cn1)NCc1ccc(Cl)c(Cl)c1 [Example 41, N-[4-(4(5)-Imidazoyl)butyl]-N'-(3,4-dichlorophenyl)methyl-sulfamide]	–
–	–	8.46	8.62	O=S(=O)(NCCCCCCc1c[nH]cn1)NCc1ccc(I)cc1 [Example 61, N-[6-(4(5)-Imidazoyl)hexyl]-N'-(4-iodophenyl)methyl-sulfamide]	–
–	1.23	8.71	–	O=S(=O)(NCCCCc1c[nH]cn1)NCc1ccc(Br)cc1 [Example 45, N-[4-(4(5)-Imidazoyl)butyl]-N'-(4-bromophenyl)methyl-sulfamide]	–
5.75	7.41	–	–	O=S(=O)(NCCCCCCc1c[nH]cn1)NCc1ccc(-c2ccccc2)cc1 [Example 62, N-[6-(4(5)-Imidazoyl)hexyl]-N'-(4biphenyl)methyl-sulfamide]	–
4.57	14.5	–	–	O=S(=O)(NCCCCCCc1c[nH]cn1)NCc1ccc(C(F)(F)F)cc1 [Example 60, N-[6-(4(5)-Imidazoyl)hexyl]-N'-(4-(trifluoromethyl)phenyl)methyl-sulfamide]	–
7.76	8.71	–	–	O=S(=O)(NCCCCCc1c[nH]cn1)NCc1ccc(I)cc1 [Example 66, N-[5-(4(5)-Imidazoyl)pentyl]-N'-(4-iodophenyl)methyl-sulfamide]	–
16.2	13.8	–	–	O=S(=O)(NCCCCc1c[nH]cn1)NCc1cccc(Cl)c1 [Example 42, N-[4-(4(5)-Imidazoyl)butyl]-N'-(3-chlorophenyl)methyl-sulfamide]	–
–	87.1	7.58	–	COc1ccc(CNS(=O)(=O)NCCCCc2c[nH]cn2)cc1 [Example 48, N-[4-(4(5)-Imidazoyl)butyl]-N'-(4-methoxyphenyl)methyl-sulfamide]	–
16.6	18.6	–	–	O=S(=O)(NCCCCc1c[nH]cn1)NCc1ccc2ccccc2c1 [Example 50, N-[4-(4(5)-Imidazoyl)butyl]-N'-2-naphthylmethyl-sulfamide]	–
6.61	4.07	–	–	O=S(=O)(NCCCCCc1c[nH]cn1)NCc1ccc(C(F)(F)F)cc1 [Example 63, N-[5-(4(5)-Imidazoyl)pentyl]-N'-(4-(trifluoromethyl)phenyl)methyl-sulfamide]	–
